Earlier results as cited in the PKSmart pharmacokinetics tables (Seal et al. 2025).

Test: not given per row; by the article one of three: Lombardo et al. 2013, J Clin Pharmacol 53:178, doi 10.1177/0091270012440282; 'New Drugs at FDA', novel drug approvals for 2021 and 2022 (the article's reference 43); Yap, Li, Chen 2006, J Mol Graph Model 24:383, doi 10.1016
Details: human; for clearance / Vd / half-life: in vivo; for fraction unbound: plasma

Row | SMILES | clearance [mL/min/kg] | further results
1 | CN[C@H](C)[C@H](O)c1ccccc1 | 7.33 | –
2 | CCOC(=O)C(CCc1ccccc1)NC(C)C(=O)N1Cc2ccccc2CC1C(=O)O (stereo unspecified) | 26.4 | –
3 | COc1ccc(-n2nccn2)c(C(=O)N2CCC[C@@]2(C)c2nc3c(C)c(Cl)ccc3[nH]2)c1 | – | Vd: 0.52 L/kg; half-life: 8 h; fraction unbound: 0.01
4 | CS(=O)(=O)c1ccc(Oc2cc(F)cc(C#N)c2)c2c1[C@H](O)[C@H](F)[C@@H]2F | 2.03 | Vd: 2.17 L/kg; half-life: 14 h; fraction unbound: 0.55
5 | Oc1ccc(CCNCCCCCCNCCc2ccccc2)cc1O | 36 | –
6 | O=[P@@]1(N(CCCl)CCCl)NCCCO1 | 2.54 | –
7 | CC1(C)S[C@H]2C(NC(=O)C(NC(=O)N3CCN(S(C)(=O)=O)C3=O)c3ccccc3)C(=O)N2C1C(=O)O (stereo partly specified) | 2.71 | –
8 | OC[C@H]1O[C@@H](n2cnc3c2N=CNC[C@@H]3O)CC1O (stereo partly specified) | 1.68 | –
9 | CN(C)CCC[C@]1(c2ccc(F)cc2)OCc2cc(C#N)ccc21 | 5.21 | –
10 | COc1c(N2CCN[C@@H](C)C2)c(F)cc2c(=O)c(C(=O)O)cn(C3CC3)c12 | 2.85 | –
11 | O=C(O)CCC(NC(=O)NC(CCCCNC(=O)C(Cc1ccc2ccccc2c1)NC(=O)C1CCC(CNC(=O)CN2CCN(CC(=O)O)CCN(CC(=O)O)CCN(CC(=O)O)CC2)CC1)C(=O)O)C(=O)O (stereo unspecified) | 0.567 | Vd: 2.05 L/kg; half-life: 41.6 h; fraction unbound: 0.35
12 | NC(=O)c1ccc2c(c1O)[C@]13CCN(CC4CC4)[C@H](C2)[C@]1(O)CCC(=O)C3 | 11.1 | half-life: 9 h; fraction unbound: 0.72
13 | CCN(CC)c1cc(C)n2ncnc2n1 | 3.79 | –
14 | CCN(CC)C(=O)N[C@H]1C[C@@H]2c3cccc4[nH]cc(c34)C[C@H]2N(C)C1 | 16 | –
15 | O=C(CO)NCCCOc1cccc(CN2CCCCC2)c1 | 6.73 | –
16 | CCCCCCCN(CC)CCC[C@@H](O)c1ccc(NS(C)(=O)=O)cc1 | 29 | –
17 | Nc1nc(F)nc2c1ncn2[C@@H]1O[C@@H](COP(=O)(O)O)[C@@H](O)[C@@H]1O | 3.7 | –
18 | O=C1CN2Cc3c(ccc(Cl)c3Cl)N=C2N1 | 2.14 | –
19 | C[C@H](CC(c1ccccc1)c1ccccc1)NC(C)(C)C | 0.95 | –
20 | O=C(O)C1=C(CSc2nnnn2CS(=O)(=O)O)CS[C@H]2C(NC(=O)C(O)c3ccccc3)C(=O)N12 (stereo partly specified) | 0.33 | –
21 | CC1(C)S[C@H]2C(NC(=O)C(NC(=O)N3CCNC3=O)c3ccccc3)C(=O)N2C1C(=O)O (stereo partly specified) | 2.52 | –
22 | O=C(O)C1C[C@H](C2CCCCC2)CN1C(=O)C[P@](=O)(O)CCCCc1ccccc1 (stereo partly specified) | 0.46 | –
23 | CS(=O)(=O)c1ccc([C@H](O)[C@@H](CO)NC(=O)C(Cl)Cl)cc1 | 2.62 | –
24 | COc1cc2nccc(Oc3ccc(NC(=O)Nc4cc(C)on4)c(Cl)c3)c2cc1OC | 0.21 | Vd: 2.05 L/kg; half-life: 111 h; fraction unbound: 0.01
25 | CC(C)(C)NC[C@@H](O)COc1cccc2c1SCCC2 | 1.86 | –

Row | SMILES | clearance [mL/min/kg] | further results
26 | COC(=O)C1[C@H](OC(=O)c2ccccc2)CC2CC[C@@H]1N2C (stereo partly specified) | 32 | –
27 | O[C@@](CCN1CCCC1)(c1ccccc1)C1CCCCC1 | 0.97 | –
28 | CO[C@]1(NC(=O)CSCC#N)C(=O)N2C(C(=O)O)=C(CSc3nnnn3C)CS[C@H]21 | 1.84 | –
29 | Cc1c(OCC(F)(F)F)ccnc1C[S@@+](O)c1nc2ccccc2[n-]1 | 6.23 | –
30 | CC(C)NC[C@@H](O)COc1ccc(CCOCC2CC2)cc1 | 4.7 | –
31 | O[C@@H](c1cc(C(F)(F)F)nc2c(C(F)(F)F)cccc12)[C@@H]1CCCCN1 | 0.41 | –
32 | CC[C@]1(C)CC(=O)NC1=O | 0.19 | –
33 | CC(=O)OCC1=C(C(=O)O)N2C(=O)C(NC(=O)CSc3ccncc3)[C@@H]2SC1 (stereo partly specified) | 6.36 | –
34 | O=C(OCCN1CCCCCC1)C(c1ccsc1)C1CCCCC1 (stereo unspecified) | 18.3 | –
35 | CCN1CCC[C@@H]1CNC(=O)c1cc(S(=O)(=O)CC)c(N)cc1OC | 7.8 | –
36 | CCN(CC)CCC[C@@H](C)Nc1ccnc2cc(Cl)ccc12 | 7.09 | –
37 | CC(NC(C)(C)C)C(=O)c1cccc(Cl)c1 (stereo unspecified) | 36 | –
38 | CC(C)Nc1nc2cc(Cl)c(Cl)cc2n1[C@H]1O[C@@H](CO)[C@H](O)[C@@H]1O | 0.79 | Vd: 0.46 L/kg; half-life: 4.32 h; fraction unbound: 0.02
39 | CON=C(C(=O)NC1C(=O)N2C(C(=O)[O-])=C(C[n+]3cccc4c3CCC4)CS[C@@H]12)c1csc(N)n1 (stereo partly specified) | 1.98 | –
40 | C[C@]12C=CC(=O)N[C@@H]1CC[C@@H]1[C@H]2CC[C@]2(C)C(C(=O)Nc3cc(C(F)(F)F)ccc3C(F)(F)F)CC[C@@H]12 (stereo partly specified) | 0.14 | –
41 | CC(C)NC[C@@H](O)c1ccc(NS(C)(=O)=O)cc1 | 2.14 | –
42 | CCCC(NC(C)C(=O)N1C(C(=O)O)C[C@@H]2CCCC[C@H]21)C(=O)O (stereo partly specified) | 10.9 | –
43 | CC(C)[N+](C)(CCOC(=O)C1c2ccccc2Oc2ccccc21)C(C)C | 18.9 | –
44 | C=CCc1ccccc1OC[C@H](O)CNC(C)C | 6.47 | –
45 | CC(C(=O)O)c1ccc2oc(-c3ccc(Cl)cc3)nc2c1 (stereo unspecified) | 0.07 | –
46 | CN1c2ccccc2[C@H](NCCCCCCC(=O)O)c2ccc(Cl)cc2S1(=O)=O | 3.43 | –
47 | CCCC[C@](C)(O)C/C=C\[C@H]1C(CCCCCCC(=O)OC)C(=O)C[C@@H]1O (stereo partly specified) | 240 | –
48 | COc1ccc(C(=O)Nc2ccccc2CC[C@@H]2CCCCN2C)cc1 | 177 | –
49 | CCCC[C@@H]1CC(=O)[C@]2(O)O[C@H]3[C@@H](NC)[C@@H](O)[C@@H](NC)[C@H](O)[C@@H]3O[C@@H]2O1 | 1.9 | –
50 | CN1CCC[C@@H]1c1cccnc1 | 18.5 | –
